According to patent US20210393549A1, “New use of R-enantiomer of adrenergic beta 2 receptor agonists for treatment of inflammatory bowel disease and its extra intestinal manifestations” (priority 2018, published 2021):
Like-named read-outs stand apart in the source and are kept apart here.

Legend:
[1] = tested on: DSS induced acute colitis; settings: for Hist score (histological score): epithelium 0-4 plus infiltration 0-4; for Hist score (histological score) / Col Length (colon length): tenth day; for Hist score (histological score) / FOB (fecal occult blood) / Weight / DAI (disease active index) / Col Length (colon length): 1 mg/kg (R-B, S-B 10 mg/kg; RS-C 2 mg/kg); for Hist score (histological score) / FOB (fecal occult blood) / Weight / Col Length (colon length): mean ± SD; for FOB (fecal occult blood): grade 0, 2, 4; for FOB (fecal occult blood) / Weight / Col Length (colon length): i.g. daily 8 days; for DAI (disease active index): score 0 to 12, i.g. daily 8 days from 2nd day of DSS, n=5; for colon histology (H&E), in words: Example 1, compared with untreated DSS mice
Excerpt: In one embodiment, IBD was induced in mice by add DSS into drink water for 7 days. […] (Cooper, S. et al., Clinic pathologic study of dextran sulfate sodium experimental murine colitis, Laboratory Investigation, vol. 69, no. 2, p. 238-249, 1993)
The mice were scarified at day 10th for anatomy and histology evaluations. […] Each of the above histological features was scored individually and added together which is then collectively expressed as “histological score”, for quantitative evaluation (Cooper, S. et al., above).
Male C57BL mice (8-10 weeks, 18-20 g) were grouped into control (drinking water only), DSS and DSS plus treatment groups (n=5). Acute colitis was induced by feeding mice with 2% (w/v) dextran sulfate sodium (DSS) (molecular mass 36-50 kDa) added to the drinking water given ad libitum for 7 days. At the end of seventh day, DSS was removed and animals received only drinking water for 2 days. The animals were euthanized for anatomical and histological examination at the tenth day after DSS ingestion.
R-salbutamol (R-S) (1 mg/kg, S-salbutamol (S-S) (1 mg/kg), R-terbutaline (R-T) (1 mg/kg), S-terbutaline (S-T) (1 mg/kg), R-bambuterol (10 mg/kg), S-bambuterol (S-B) (10 mg/kg), R-clenbuterol (R-C) (1 mg/kg), RS-clenbuterol (RS-C) (2 mg/kg) were administered i.g. daily, starting from the 2nd day of DSS induction for consecutive 8 days. Dexamethasone (Dex), 1 mg/kg) was used as a reference drug.
Evaluation of disease symptoms and histological changes Disease activity index (DAI): Animals were monitored daily for weight, water/food consumption, morbidity, stool consistency and fecal blood. […] The colon length was recorded as an indicator of inflammation. The entire colon was cut open longitudinally and gently flushed with sterile phosphate-buffered saline (PBS) to remove any traces of feces for pathology preparation. Colon segments were fixed in 10% neutral buffered formalin. Tissues were embedded in paraffin, sectioned, mounted on slides. H&E-stained paraffin section images were acquired. Pathological evaluation was conducted in a blinded manner.
Histological Score: the scores were given as follows: epithelium, 0=normal morphology, 1=loss of goblet cells, 2=loss of goblet cells in large areas, 3=loss of crypts, and 4=loss of crypts in large areas; and inflammation cells infiltration, 0=no infiltrate, 1=infiltrate around the crypt basis, 2=infiltrate reaching the muscularis mucosae, 3=extensive infiltration reaching the muscularis mucosae and thickening of the mucosa with abundant edema, and 4=infiltration of the submucosa. Data were presented as mean±the standard deviation (SD).

[2] = tested on: DSS induced sub-acute colitis; assay type: in vivo; set-up: DAI (disease active index) / FOB (fecal occult blood) / Hist score (histological score): scale not given here; Weight / Col Length (colon length): unit not given here; settings: for Col Length (colon length) / DAI (disease active index) / FOB (fecal occult blood) / Hist score (histological score) / Weight: one week treatment, evaluation at 23rd day, R-S, S-S 1 mg/kg, R-B, S-B 10 mg/kg; for length of colon-rectors, in words: sub-acute DSS colitis; for length of colon-rectors, in words / histological index / histological score, in words / fecal occult blood, in words / DAI, in words: compared with untreated DSS mice; for body weights, in words / histological index / histological score, in words / fecal occult blood, in words / DAI, in words: sub-acute or chronic DSS colitis; for fecal occult blood, in words: day 14th and 22nd
Excerpt: This invention also disclosed the used of R-salbutamol for treatment of sub acute or chronic phases of IBD. In one embodiment, IBD was induced by DSS as mentioned above, along with the treatment of R-salbutamol, at day 7th, DSS was removed and replaced with drinking water for additional 2 weeks. The disease active index (DAI) of mice was examined and evaluated periodically. The mice were scarified for pathological and histological evaluations at day of 23rd. In DSS induce IBD mice, there were significant loss of weight and fecal occult blood at day 14th and 22nd. The overall condition of colitis was severe although there was slightly improvement comparing the day 7th. The colon-rector length was significant shortened, and histological score were significant higher from control. In mice with DSS induced colitis, there were significant mononuclear leucocytes infiltration, few newly grew crypts with architectural disarray, denegation of epithelia, mucosa aberrant. There was also deep mucosal lymphocytosis, destruction of lamina propria and sometimes, transmural inflammation.
Same as example 1, except • 1), Three weeks' study with one week treatment.
DSS and all the treatment was removed and replaced with drinking water at the end of 1st week. Mice were given drink water and food ad libitum for additional 2 weeks.

[3] = tested on: knee joints (articular cartilage, meniscus); experiment: Damage of knee joints in DSS induced IBD mice; assay type: in vivo; settings: compared with untreated DSS mice
Excerpt: In one embodiment, in DSS induced IBD mice, there was also a damage of knee joints. The articular cartilage structure became thinner and partially destroyed. The chondrocytes were degenerated, decreased and clustered. The meniscuses were damaged and lost its structural integrity. In X-ray, the layer of articular cartilage was thinner and bone structure was decreased. […] The articular cartilage and bone structure increased toward normal.

[4] = tested on: DSS induced sub-acute colitis; experiment: Prolonged (two weeks) treatment in DSS induced sub-acute colitis; assay type: in vivo, mice; settings: evaluation at 23rd day, salbutamol 1 mg/kg, bambuterol 10 mg/kg
Excerpt: Same as example 2, except. 1), Two Weeks Treatment within a Three Weeks of Study
DSS was removed from drinking water at the end of 1st week. The treatments were started at 1st day for consecutive 14 days (2 weeks). Only drinking water given for the 3rd week. The evaluation and examination were made at 23rd day as did in example 1.

[5] = tested on: IMQ-induced Psoriasis-Like Skin lesions; experiment: IMQ-induced psoriasis-like skin lesions; assay type: in vivo, mice; settings: dorsal skin, IMQ-induced psoriasis mice
Description: Mice were divided into control, psoriasis and psoriasis plus treatment groups, (n=8 in each group). Psoriasis were induced by topical application of imiquimod cream (62.5 mg) on shaved dorsal skin for seven consecutive days. Vaseline was used in control group. There were four treatment groups: three doses of R-salbutamol (R-Sal) (0.5 mg, 1 mg, 2 mg/kg) and Dexamethasone (1 mg/kg) as positive control. All the treatments and same volume of saline (in control group) were administered orally. In some experiment, R-bambuterol (long-last beta2 agonist) was used as an additional treatment group (n=3). Psoriasis Area Severity Index were used for evaluation. Each of the scores for erythema, scaling and skin thickness were measured separately and then group together as a calculative score. (FIG. 2)

[6] = tested on: DNCB induced allergic contact dermatitis; experiment: DNCB induced allergic contact dermatitis model (eczema); assay type: in vivo, mice; settings: oral 8 days, indomethacin 5 mg/kg
Description: Mice was shaved at abdominal area DNCB (100 μL 0.5%) is dissolved and applied to the shaved skin to induce Atopica dermatitis for 2 consecutive days. At day 8th, DNCB was applied to both inner and outer surfaces of ears to induce eczema. Treatment of R-salbutamol and indomethacin were given orally at day 1st for consecutive 8 days. The mice were scarified at day 9th for examination and evaluation. Mice were divided into four groups (n=8), namely A, Control; B. Eczema (DNCB); C. Eczema plus R-Salbutamol of 0.05, 0.1 or 0.2 mg/kg; D. Eczema plus indomethacin of 5 mg/kg. The inflammation scores were evaluated according to swelling, erythema, scratch and thickness of both ears. [table]

TNBS-induced colitis = TNBS-induced colitis (model for Crohn's disease); assay type: in vivo, Male mice; settings: TNBS treated mice
Excerpt: Male mice colitis was induced by rectal co-administration of ethanol and TNBS (Trinitrobenzenesulfonic acid). Severe colitis in mice that was characterized by weight loss and diarrhea. Histologically there were loss of normal structures, visible discrete epithelioid granuloma, multiple erosive lesions, massive transmural inflammation infiltration of lymphocytes, and the loss of goblet cells. […] There was significant alleviation of lesions, few inflammatory infiltration with growing crypts and recovery mucosa epithelia along the column. […] In addition, in TNBS treated colitis mice, there were perianal symptoms: erythema, abscesses and ulcers found in some mice, which may lead to perianal fissures or fistulas. […] The therapeutically effects of R-salbuterol, R-clenbuterol and R-bambuterol on the symptoms in TNBS induced Crohn's disease has never been reported in prior art.

[7] = acute DSS colitis, compared with untreated DSS mice
[8] = R-Salbutamol 0.05, 0.1 or 0.2 mg/kg

C[C@@H]1C[C@H]2[C@@H]3CCC4=CC(=O)C=C[C@]4(C)[C@@]3(F)[C@@H](O)C[C@]2(C)[C@@]1(O)C(=O)CO [DEX, Dexamethasone]
Hist score (histological score) [1]: 6 ± 0.5 | FOB (fecal occult blood) [1]: 2.5 ± 0.5 | Weight [1]: 88 ± 2.4 | DAI (disease active index) [1]: 7 | Col Length (colon length) [1]: 7.1 ± 0.2

CC(C)(C)NCC(O)c1cc(Cl)c(N)c(Cl)c1 (centres unmarked) [RS-C, RS-clenbuterol]
DAI, in words [1, 7]: much less improvement than DSS mice treated with R-clenbuterol | histological score, in words [1, 7]: better than DSS untreated but worse than R-enantiomer treated mice | Hist score (histological score) [1]: 6 ± 0.5 | FOB (fecal occult blood) [1]: 4 ± 0.1 | Weight [1]: 87 ± 2 | DAI (disease active index) [1]: 10 | Col Length (colon length) [1]: 6.5 ± 0.2^

CN(C)C(=O)Oc1cc(OC(=O)N(C)C)cc([C@H](O)CNC(C)(C)C)c1 [S-B, S-bambuterol]
colon histology (H&E), in words [1]: no signs of improvements | Hist score (histological score) [1]: 7.5 ± 1^ | FOB (fecal occult blood) [1]: 2.5 ± 0.5 | Weight [1]: 81 ± 3.2 | DAI (disease active index) [1]: 12 | Col Length (colon length) [1]: 6 ± 0.6 | Col Length (colon length) [2]: 6.8 ± 0.1 | DAI (disease active index) [2]: 12 | FOB (fecal occult blood) [2]: 3.9 ± 0.1 | Hist score (histological score) [2]: 6.9 ± 1^ | Weight [2]: 96 ± 1.1 | length of colon-rectors, in words [2]: shorter | body weights, in words [2]: lower | histological index / histological score, in words [2]: markedly higher than untreated DSS mice | fecal occult blood, in words [2]: more severe | damage of articular cartilage, meniscus and bone structure of knee joints [3]: exacerbated | DAI, in words [4]: markedly higher than untreated DSS group | histological score, in words [4]: markedly higher than untreated DSS group

CC(C)(C)NC[C@@H](O)c1ccc(O)c(CO)c1 [S-S, S-salbutamol]
colon histology (H&E), in words [1]: no signs of improvements | toxic effects on the bowel ([1]; S-enantiomers in DSS mice): toxic to the bowel | effects in prevent and treatment of DSS induced IBD, in words ([1]; acute DSS colitis): no amelioration or therapeutic effects at all | DAI, in words [1, 7]: significantly exacerbated | FOB, in words [1, 7]: significantly worsened | histological score, in words [1, 7]: significantly higher than untreated DSS mice | length of colon-rector / shortening of large bowel, in words [1, 7]: further shortened | Hist score (histological score) [1]: 7.9 ± 0.5 | FOB (fecal occult blood) [1]: 4.5 ± 0.5 | Weight [1]: 80 ± 2.3 | DAI (disease active index) [1]: 13 | Col Length (colon length) [1]: 6.0 ± 0.9 | Col Length (colon length) [2]: 6.5 ± 0.9 | DAI (disease active index) [2]: 13 | FOB (fecal occult blood) [2]: 4.5 ± 0.3 | Hist score (histological score) [2]: 7.7 ± 0.5 | Weight [2]: 95 ± 0.8 | length of colon-rectors, in words [2]: shorter | body weights, in words [2]: lower | DAI, in words [2]: much worse | histological index / histological score, in words [2]: markedly higher than untreated DSS mice | fecal occult blood, in words [2]: more severe | damage of articular cartilage, meniscus and bone structure of knee joints [3]: exacerbated | histology of psoriasis skin lesions (HE) [5]: worsened the psoriasis histology | DAI, in words [4]: markedly higher than untreated DSS group | histological score, in words [4]: markedly higher than untreated DSS group

CC(C)(C)NC[C@@H](O)c1cc(O)cc(O)c1 [S-T, S-terbutaline]
colon histology (H&E), in words [1]: no signs of improvements | Hist score (histological score) [1]: 7 ± 1 | FOB (fecal occult blood) [1]: 4 ± 0.5 | Weight [1]: 80 ± 2.9 | DAI (disease active index) [1]: 12 | Col Length (colon length) [1]: 5.9 ± 0.5 | DAI, in words [2]: much worse than untreated DSS mice | histological index / histological score, in words [2]: much worse than untreated DSS mice

CC(C)(C)NC[C@@H](O)c1cc(Cl)c(N)c(Cl)c1 [S-clenbuterol]
DAI, in words [2]: much worse than untreated DSS mice | histological index / histological score, in words [2]: much worse than untreated DSS mice

COc1ccc2c(c1)c(CC(=O)O)c(C)n2C(=O)c1ccc(Cl)cc1 [indomethacin, reference compound]
erythema score of both ears [6, 8]: lesser effects | thickness score of both ears [6, 8]: lesser effects | eczema histology and inflammatory infiltration ([6]; dose-dependent response): little effects on eczema

infliximab
submucosa fibrosis and narrowing of intestinal lumen (TNBS-induced colitis): enhanced the submucosa fibrosis and lumen narrowing | submucosa fibrosis and narrowing of intestinal lumen (TNBS-induced colitis; listed as IFX): significant submucosa fibrosis and narrowing in lumen
